Measurements: patent publication US9751861B2, “N1-(3,3,3-trifluoro-2-hydroxo-2-methylpropionyl)-piperidine derivatives as inhibitors of pyruvate dehydrogenase kinase” (MERCK PATENT GMBH, priority 2013, dated 2017)
pIC50, pKd: −log10 of the molar value.

Legend:
human PDHK2 (12-407) = biological target: T1, human PDHK2 (12-407) (Homo sapiens, UniProt Q15119); test: Isothermal titration calorimetry (ITC) binding; conditions: 30° C., pH 7.5
T1 construct: The human PDHK2 (12-407) was produced in E. coli; His-tag (cleaved yes); made in house; host or cells: E. coli
How it was run: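 Untagged PDHK2 (12-407) from E. coli at 50 μM titrated into 5 μM compound at 30° C in pH 7.5 HEPES/KCl/MgCl2/phosphate buffer, ≤1% DMSO. One-site fit gave KA, ΔH^obs and N after heat-of-dilution correction; protein concentration referenced to a standard inhibitor and compound concentration adjusted to 1:1 stoichiometry.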

PDHK2 = biological target: T2, PDHK2 (Homo sapiens, UniProt Q15119); test: Biochemical activity testing of PDHK2: PDC inactivation assay; conditions: human rec PDHK2, PDC from porcine heart, ATP 5 μM; read-out: IC50 PDHK2 (enzyme assay)
T2 construct: purchased Carna Bioscience
How it was run: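 Human recombinant PDHK2 (137 nM final) preincubated 30 min at RT with porcine heart PDC (20 mU/ml) and compound in pH 7.0 phosphate buffer, then phosphorylated with 5 μM ATP for 30 min at 37 °C. Residual PDC activity read as NADH fluorescence increase (Ex 340/Em 450) over 45 min; inhibitor-free reaction as full value, 3 mM DCA as zero, IC50 derived.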

PDH-Elalpha (pSer300) = test: Cellular immunofluorescence assay in HEK293T cells; type: cell-based; conditions: Homo sapiens, HEK-293T, 5 hours incubation, anti-PDH-E1alpha pSer300 immunofluorescence, read-out: IC50 (cell data)
Protocol: Cellular Assay for Determination of Compound Activities
Compound activities were determined in a cellular immunofluorescence assay. Human HEK293T cells were seeded into black 384-well plates with clear bottom and grown overnight.
Next day, test compounds were added to the wells and the plates incubated for 5 hours. Following this, cells were fixed with formaldehyde, permeabilised and blocked. The primary antibody, Anti-PDH-Elalpha (pSer300), AP1064 (Merck Millipore) was added and incubated overnight in the plate wells. Next, cells were washed and the seconday antibody, Alexa Fluor 488, goat anti-rabbit ab (A-11008, Invitrogen) was added together with Hoechst 33258 (H3569, Invitrogen) and incubated for 1 hour in the plate wells. Finally, cells were washed and the plates were measured on the laser scanning cytometer acumen hci (TTpLabtech).
The raw data were normalized against a pharmacological inhibitor control and dose response curves were generated by plotting the percent effect values using the software package Genedata screener (Genedata).

pKd (human PDHK2 (12-407))	pIC50 (PDHK2)	pIC50 (PDH-Elalpha (pSer300))	SMILES
> 6.52	> 6.52	5.52 to 6.52	C[C@@](O)(C(=O)N1CCC(c2ccnn2-c2ccc(Cl)cc2F)CC1)C(F)(F)F [Compound A23, (R)-1-{4-[2-(4-Chloro-2-fluoro-phenyl)-2H-pyrazol-3-yl]-piperidin-1-yl}-3,3,3-trifluoro-2-hydroxy-2-methyl-propan-1-one]
> 6.52	> 6.52	5.52 to 6.52	CCc1ccc(-n2nccc2C2CCN(C(=O)[C@@](C)(O)C(F)(F)F)CC2)cc1 [Compound A24, (R)-1-{4-[2-(4-Ethyl-phenyl)-2H-pyrazol-3-yl]-piperidin-1-yl}-3,3,3-trifluoro-2-hydroxy-2-methyl-propan-1-one]
> 6.52	5.52 to 6.52	5.52 to 6.52	C[C@@](O)(C(=O)N1CCC(c2ccnn2-c2ccccc2)CC1)C(F)(F)F [Compound A25, (R)-3,3,3-Trifluoro-2-hydroxy-2-methyl-1-[4-(2-phenyl-2H-pyrazol-3-yl)piperidin-1-yl]-propan-1-one]
> 6.52	> 6.52	5.52 to 6.52	C[C@@](O)(C(=O)N1CCC(c2ccnn2-c2ccc(F)cc2F)CC1)C(F)(F)F [Compound A26, (R)-1-{4-[2-(2,4-Difluoro-phenyl)-2H-pyrazol-3-yl]-piperidin-1-yl}-3,3,3-trifluoro-2-hydroxy-2-methyl-propan-1-one]
> 6.52	> 6.52	5.52 to 6.52	C[C@@](O)(C(=O)N1CCC(c2ccnn2-c2ccc(C(F)(F)F)cc2)CC1)C(F)(F)F [Compound A27, (R)-3,3,3-Trifluoro-2-hydroxy-2-methyl-1-{4-[2-(4-trifluoromethyl-phenyl)-2H-pyrazol-3-yl]-piperidin-1-yl}-propan-1-one]
> 6.52	> 6.52	5.52 to 6.52	COc1ccc(-n2nccc2C2CCN(C(=O)[C@@](C)(O)C(F)(F)F)CC2)c(F)c1 [Compound A28, (R)-3,3,3-Trifluoro-1-{4-[2-(2-fluoro-4-methoxy-phenyl)-2H-pyrazol-3-yl]-piperidin-1-yl}-2-hydroxy-2-methyl-propan-1-one]
> 6.52	> 6.52	5.52 to 6.52	C[C@@](O)(C(=O)N1CCC(c2cc(C(F)(F)F)nn2-c2ccc(Cl)cc2)CC1)C(F)(F)F [Compound A35, (R)-1-{4-[2-(4-Chloro-phenyl)-5-trifluoromethyl-2H-pyrazol-3-yl]-piperidin-1-yl}-3,3,3-trifluoro-2-hydroxy-2-methyl-propan-1-one]
> 6.52	5.52 to 6.52	4.30 to 5.52	CC(C)n1nccc1C1CCN(C(=O)[C@@](C)(O)C(F)(F)F)CC1 [Compound A36, (R)-1-[4-(2-Isopropyl-2H-pyrazol-3-yl)-piperidin-1-yl]-3,3,3-trifluoro-2-hydroxy-2-methyl-propan-1-one]
> 6.52	5.52 to 6.52	4.30 to 5.52	C[C@@](O)(C(=O)N1CCC(c2ccnn2C2CCCCC2)CC1)C(F)(F)F [Compound A37, (R)-1-[4-(2-Cyclohexyl-2H-pyrazol-3-yl)-piperidin-1-yl]-3,3,3-trifluoro-2-hydroxy-2-methyl-propan-1-one]
> 6.52	5.52 to 6.52	5.52 to 6.52	C[C@@](O)(C(=O)N1CCC(c2ccnn2Cc2ccccc2)CC1)C(F)(F)F [Compound A38, (R)-1-[4-(2-Benzyl-2H-pyrazol-3-yl)-piperidin-1-yl]-3,3,3-trifluoro-2-hydroxy-2-methyl-propan-1-one]
> 6.52	> 6.52	5.52 to 6.52	C[C@@](O)(C(=O)N1CCC(c2ccnn2-c2ccc(F)cc2Cl)CC1)C(F)(F)F [Compound A39, (R)-1-{4-[2-(2-Chloro-4-fluoro-phenyl)-2H-pyrazol-3-yl]-piperidin-1-yl}-3,3,3-trifluoro-2-hydroxy-2-methyl-propan-1-one]
